Consider four compounds from article PMC3869807 (PLoS ONE, 2013).

The target in experiment [1] is T1, µ-opioid receptor (Homo sapiens, UniProt P35372). The experiment can be described thus: biochemical. Further details: host or cells: U2OS (membrane preparation).
The target in experiment [2] is T1, µ-opioid receptor. The experiment is described as follows: cell-based. Set-up: host or cells: U2OS. Format: cell-based.
Experiment [3] concerns the target T1, µ-opioid receptor. The experiment is described as follows: biochemical. Format: binding. Further details: host or cells: U2OS (membrane preparation).
In experiment [4] the target is T1, µ-opioid receptor. The experiment can be described thus: biochemical. The format is binding. Set-up: host or cells: U2OS (membrane preparation). This is another data set of the same source.

Structures are written as SMILES. “And” between values parts separate entries of the source, which are not always exact repeats. Identical values can stand only once.

T1 sequence (P35372 whole entry): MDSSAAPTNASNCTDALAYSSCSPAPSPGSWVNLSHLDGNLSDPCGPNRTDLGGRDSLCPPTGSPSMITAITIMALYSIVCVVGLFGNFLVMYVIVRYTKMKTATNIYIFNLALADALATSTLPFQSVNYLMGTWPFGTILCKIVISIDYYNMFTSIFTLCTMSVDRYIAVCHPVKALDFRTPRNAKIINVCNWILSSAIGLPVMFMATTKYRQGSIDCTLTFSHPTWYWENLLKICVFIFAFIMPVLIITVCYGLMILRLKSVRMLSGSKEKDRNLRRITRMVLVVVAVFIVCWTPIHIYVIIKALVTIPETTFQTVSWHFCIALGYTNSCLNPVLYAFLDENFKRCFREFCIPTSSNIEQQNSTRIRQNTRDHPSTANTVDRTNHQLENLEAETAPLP

With `NC(=O)[C@H](Cc1ccccc1)NC(=O)[C@H](Cc1ccccc1)NC(=O)[C@@H]1CCCN1C(=O)[C@@H](N)Cc1ccc(O)cc1` [Endomorphin 2, endomorphin 2], the Emax on µ-opioid receptor [1] was 104% and 101±2%; on µ-opioid receptor [2] it was 74±4%; on µ-opioid receptor [2] (U2OS), 69 ± 3%.

With `C[C@@H](NC(=O)[C@@H](N)Cc1ccc(O)cc1)C(=O)NCC(=O)N(C)[C@@H](Cc1ccccc1)C(=O)NCCO` [DAMGO, [D-Ala^2, MePhe^4, gly^5 –ol]-enkephalin], the “β-arrestin recruitment that was PTX sensitive” value on µ-opioid receptor [2] is given as 60–70%.

`CC(=O)N[C@@H](Cc1ccccc1)C(=O)NCC(C)(C)NC(=O)[C@@H](N)Cc1ccc(O)cc1.Cl` [Pfizer comp 1, 2-(L-Tyrosylamino)-1-[(N-acetyl-L-phenylalanyl)-amino]-2-methylpropane hydrochloride]: the Ki is 21.9 nM at µ-opioid receptor [3] (GRK2 moi 5 KL), 42.7 nM on µ-opioid receptor [3] (Untransduced KL), 0.0513 nM at µ-opioid receptor [4] (GRK2 moi 5 KH) and 0.0479 nM on µ-opioid receptor [4] (Untransduced KH). The Emax at µ-opioid receptor [1] is 103% and 100±4%; on µ-opioid receptor [2], 99±8%; at µ-opioid receptor [2] (U2OS), 106 ± 4%. The 50% effective concentration (EC50) was 0.219 nM and 0.17 nM on µ-opioid receptor [1] (EC50); 1.38 nM at µ-opioid receptor [2] (β-fun 1 nM EC50); 2.24 nM on µ-opioid receptor [2] (β-fun 10 nM EC50). Moreover, the “β-arrestin recruitment that was PTX sensitive” value on µ-opioid receptor [2] is 60–70%.

`COc1ccc2c3c1O[C@H]1C(=O)CC[C@@]4(O)[C@@H](C2)N(C)CC[C@]314` [Oxycodone, oxycodone]: at µ-opioid receptor [1], the Emax is 95% and 104±2%. At µ-opioid receptor [2], the “β-arrestin recruitment that was PTX sensitive” value was 60–70%.
